The test system of the experiment is L1210 leukemia ip in BDF1 mice, survival T/C. Description: NCI In Vivo Anticancer Drug Screen. Data for tumor model L1210 Leukemia (intraperitoneal) in B6D2F1 (BDF1) mice. Particulars: endpoint: mean survival time, higher = longer survival. The method, boiled down: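 Ratio derived from survival: compound-dosed mice over vehicle-dosed mice, all bearing a transplantable tumor.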

Where [1] appears, read: dose: 50.0 mg/kg/injection, schedule: Q01DX009 (ip), vehicle: saline with Tween-80.
The mark [2] stands for this setting: dose: 100.0 mg/kg/injection, schedule: Q01DX009 (ip), vehicle: saline with Tween-80.
[3] abbreviates: dose: 100.0 mg/kg/injection, schedule: Q04DX003 (ip), vehicle: saline.
Setting [4] is: dose: 200.0 mg/kg/injection, schedule: Q04DX003 (ip), vehicle: saline.
Setting [5] is: dose: 200.0 mg/kg/injection, schedule: Q01DX009 (ip), vehicle: saline with Tween-80.
Where [6] appears, read: dose: 100.0 mg/kg/injection, schedule: Q04DX003 (ip), vehicle: saline with Tween-80.
The mark [7] stands for this setting: dose: 200.0 mg/kg/injection, schedule: Q04DX003 (ip), vehicle: saline with Tween-80.
The mark [8] stands for this setting: dose: 400.0 mg/kg/injection, schedule: Q04DX003 (ip), vehicle: saline with Tween-80.

Several values for one entry are separate records, joined by “and”; a condition that tells them apart may be missing. Equal values may be shown once. Inconclusive results and toxic doses are left out.

Consider `CCc1ccc2c(OC(C)=O)c3ccccc3c(OC(C)=O)c2c1`, for which the T/C runs as follows: (dose: 100.0 mg/kg/injection, schedule: Q01DX001 (ip), vehicle: saline with Tween-80) 95 % of control; (dose: 200.0 mg/kg/injection, schedule: Q01DX001 (ip), vehicle: saline with Tween-80) 95 % of control; (dose: 400.0 mg/kg/injection, schedule: Q01DX001 (ip), vehicle: saline with Tween-80) 93 % of control.
With `CC(C)C(NC(=O)OCc1ccccc1)C(=O)OCc1ccc([N+](=O)[O-])cc1` (centres undefined), the T/C is 90 % of control (dose: 100.0 mg/kg/injection, schedule: Q01DX001 (ip), vehicle: other); 94 % of control (dose: 200.0 mg/kg/injection, schedule: Q01DX001 (ip), vehicle: other); 90 % of control (dose: 400.0 mg/kg/injection, schedule: Q01DX001 (ip), vehicle: other).
With `Clc1ccc2c(c1)Sc1ccccc1O2`, the T/C was 101 % of control (dose: 100.0 mg/kg/injection, schedule: Q04DX002 (ip), vehicle: saline with Tween-80); 101 % of control (dose: 200.0 mg/kg/injection, schedule: Q04DX002 (ip), vehicle: saline with Tween-80); 97 % of control (dose: 400.0 mg/kg/injection, schedule: Q04DX002 (ip), vehicle: saline with Tween-80).
Consider `COc1ccccc1OC(=O)CCl`, for which the T/C (dose: 25.0 mg/kg/injection, schedule: Q01DX009 (ip), vehicle: saline with Tween-80) was 90 % of control; the T/C under setting [1] is 93 % of control; the T/C under setting [2] was 93 % of control.
`CCC1(O)C(=O)OCc2c1ccnc2Cl` (centres undefined): the T/C runs as follows: (dose: 50.0 mg/kg/injection, schedule: Q04DX003 (ip), vehicle: saline) 105 % of control; under setting [3], 116 % of control; under setting [4], 103 % of control.
Turning to `CSc1ccc(NC(=O)NCCCCCCNC(=O)Nc2ccc(SC)cc2)cc1`, the T/C under setting [1] was 93 % of control, the T/C under setting [2] is 96 % of control and the T/C under setting [5] is 90 % of control.
`Cc1ccc(S(=O)(=O)Nc2c(C)c(Cl)c(C)c3ccccc23)cc1`: the T/C reads like this: under setting [6], 94 % of control; under setting [7], 87 % of control; under setting [8], 89 % of control.
Turning to `O=C(O)CCc1c[nH]c2ccc(N(CCCl)CCCl)cc12`, the T/C (dose: 0.7 mg/kg/injection, schedule: Q01DX Z (ip), vehicle: carboxymethylcellulose (CMC)) was 114 % of control; the T/C (dose: 1.5 mg/kg/injection, schedule: Q01DX Z (ip), vehicle: carboxymethylcellulose (CMC)) was 116 % of control; the T/C (dose: 1.87 mg/kg/injection, schedule: Q01DX001 (ip), vehicle: carboxymethylcellulose (CMC)) is 121 % of control; the T/C (dose: 3.75 mg/kg/injection, schedule: Q01DX001 (oral), vehicle: carboxymethylcellulose (CMC)) is 119 % of control; the T/C (dose: 7.5 mg/kg/injection, schedule: Q01DX001 (ip), vehicle: carboxymethylcellulose (CMC)) is 173 % of control; the T/C (dose: 15.0 mg/kg/injection, schedule: Q01DX001 (oral), vehicle: carboxymethylcellulose (CMC)) is 103 % of control.
With `O=c1c(-c2ccccc2)coc2ccccc12`, the T/C under setting [6] is 97 % of control, the T/C under setting [7] is 92 % of control and the T/C under setting [8] is 90 % of control.
Turning to `CCC1CN2C(=N1)c1ccccc1-c1cc(Cl)cc(Cl)c12` (centres undefined), the T/C was 88 % of control (dose: 100.0 mg/kg/injection, schedule: Q01DX005 (ip), vehicle: Klucel (hydroxypropylcellulose) (HPC)); 107 % of control (dose: 100.0 mg/kg/injection, schedule: Q04DX002 (ip), vehicle: Klucel (hydroxypropylcellulose) (HPC)); 94 % of control (dose: 200.0 mg/kg/injection, schedule: Q01DX005 (ip), vehicle: Klucel (hydroxypropylcellulose) (HPC)); 101 % of control (dose: 200.0 mg/kg/injection, schedule: Q04DX002 (ip), vehicle: Klucel (hydroxypropylcellulose) (HPC)); 102 % of control (dose: 400.0 mg/kg/injection, schedule: Q01DX005 (ip), vehicle: Klucel (hydroxypropylcellulose) (HPC)); 101 % of control (dose: 400.0 mg/kg/injection, schedule: Q04DX002 (ip), vehicle: Klucel (hydroxypropylcellulose) (HPC)).
Regarding `CC(C)(C)C1CCC(S(=O)(=O)c2ccccc2)C(Cl)C1` (centres undefined), the T/C runs as follows: (dose: 100.0 mg/kg/injection, schedule: Q01DX009 (ip), vehicle: Klucel (hydroxypropylcellulose) (HPC)) 102 % of control; under setting [3], 102 % of control; (dose: 200.0 mg/kg/injection, schedule: Q01DX009 (ip), vehicle: Klucel (hydroxypropylcellulose) (HPC)) 104 % of control; under setting [4], 96 % of control; (dose: 400.0 mg/kg/injection, schedule: Q01DX009 (ip), vehicle: Klucel (hydroxypropylcellulose) (HPC)) 104 % of control; (dose: 400.0 mg/kg/injection, schedule: Q04DX003 (ip), vehicle: saline) 93 % of control.
On to `NC(=S)N/N=C1/c2ccccc2-c2cc(Br)ccc21`, for which the T/C by setting is: (dose: 50.0 mg/kg/injection, schedule: Q04DX003 (ip), vehicle: Klucel (hydroxypropylcellulose) (HPC)) 106 % of control; (dose: 100.0 mg/kg/injection, schedule: Q04DX003 (ip), vehicle: Klucel (hydroxypropylcellulose) (HPC)) 97 % of control; (dose: 200.0 mg/kg/injection, schedule: Q04DX003 (ip), vehicle: Klucel (hydroxypropylcellulose) (HPC)) 100 % of control.
For `c1ccc([Si](OO[Si](c2ccccc2)(c2ccccc2)c2ccccc2)(c2ccccc2)c2ccccc2)cc1`, the T/C runs as follows: under setting [2], 86 % of control; under setting [5], 87 % of control.
On to `COc1cc(/C=N/N2C(=O)CSC2=S)ccc1OCc1ccccc1`, for which the T/C reads like this: under setting [2], 89 % of control; under setting [6], 93 % of control; under setting [5], 91 % of control; under setting [7], 93 % of control; under setting [8], 86 % of control.
`O=C(O)/C(Cl)=C(/Cl)C(Cl)=C(Cl)Cl`: the T/C under setting [1] was 97 % of control.
For the compound `CC1=C(C)CC2C(=O)C=CC(=O)C2C1` (centres undefined), the T/C reads like this: (dose: 50.0 mg/kg/injection, schedule: Q01DX009 (ip), vehicle: water) 97 % of control; (dose: 100.0 mg/kg/injection, schedule: Q01DX009 (ip), vehicle: water) 97 % of control and 101 % of control; (dose: 100.0 mg/kg/injection, schedule: Q04DX003 (ip), vehicle: water) 89 % of control; (dose: 200.0 mg/kg/injection, schedule: Q01DX009 (ip), vehicle: water) 95 % of control; (dose: 200.0 mg/kg/injection, schedule: Q04DX003 (ip), vehicle: water) 101 % of control.
In the case of `Nc1nc(N)c(-c2ccc(Cl)c(Cl)c2)c(COc2ccc(NC(=O)c3ccc(S(=O)(=O)F)cc3)cc2Cl)n1`, the T/C is, setting by setting: (dose: 50.0 mg/kg/injection, schedule: Q01DX001 (ip), vehicle: Klucel (hydroxypropylcellulose) (HPC)) 97 % of control; (dose: 100.0 mg/kg/injection, schedule: Q01DX001 (ip), vehicle: Klucel (hydroxypropylcellulose) (HPC)) 97 % of control.
Turning to `NC(=S)N/N=C/c1ccc(C(F)(F)F)cn1`, the T/C by setting is: (dose: 13.3 mg/kg/injection, schedule: Q04DX003 (ip), vehicle: saline with Tween-80) 108 % of control; (dose: 20.0 mg/kg/injection, schedule: Q04DX003 (ip), vehicle: saline with Tween-80) 103 % of control; (dose: 30.0 mg/kg/injection, schedule: Q04DX003 (ip), vehicle: saline with Tween-80) 113 % of control; (dose: 45.0 mg/kg/injection, schedule: Q04DX003 (ip), vehicle: saline with Tween-80) 112 % of control; (dose: 67.5 mg/kg/injection, schedule: Q04DX003 (ip), vehicle: saline with Tween-80) 111 % of control.
As for `O=P1(Cc2ccccc2)CC(Br)C(Br)C1` (centres undefined), the T/C (dose: 100.0 mg/kg/injection, schedule: Q04DX003 (ip), vehicle: other) was 101 % of control; the T/C (dose: 200.0 mg/kg/injection, schedule: Q04DX003 (ip), vehicle: other) was 101 % of control; the T/C (dose: 400.0 mg/kg/injection, schedule: Q04DX003 (ip), vehicle: other) was 101 % of control.
Turning to `CCCSC(=O)N(CC)C(=NCC)c1ccc(NC(=O)c2ccc(C(=O)Nc3ccc(C(=NCC)N(CC)C(=O)SCCC)cc3)cc2)cc1`, the T/C is, setting by setting: (dose: 2.25 mg/kg/injection, schedule: Q01DX015 (ip), vehicle: methylcellulose (MC)) 104 % of control; (dose: 4.5 mg/kg/injection, schedule: Q01DX015 (ip), vehicle: methylcellulose (MC)) 100 % of control; (dose: 9.0 mg/kg/injection, schedule: Q01DX015 (ip), vehicle: methylcellulose (MC)) 100 % of control; (dose: 18.0 mg/kg/injection, schedule: Q01DX015 (ip), vehicle: methylcellulose (MC)) 102 % of control; (dose: 75.0 mg/kg/injection, schedule: Q01DX015 (ip), vehicle: methylcellulose (MC)) 90 % of control; (dose: 150.0 mg/kg/injection, schedule: Q01DX015 (ip), vehicle: methylcellulose (MC)) 86 % of control.

The values above are taken from PubChem BioAssay AID248 (DTP/NCI, 2004).
